# Measurements from ChEMBL document CHEMBL1201862, “PubChem BioAssay data set” (2004).
# Active and inactive are the calls of the source.
# Key:
# [1] = target: T1, DNA dC->dU-editing enzyme APOBEC-3A (Homo sapiens, UniProt P31941); assay: Dose Response confirmation of small molecule APOBEC3A DNA Deaminase Inhibitors via a fluorescence-based single-stranded DNA deaminase assay. [Related pubchem assays (depositor defined):AID493011, AID493024]; assay type: functional
# Ion channel NompC = Ion channel NompC (Danio rerio, UniProt Q7T1G6); assay: Fluorescence counterscreen assay for TRPML3 agonists: dose response cell-based high-throughput screening assay to identify agonists of the transient receptor potential channel N1 (TRPN1). [Related pubchem assays: 1526, 1424, 1448 ]; assay type: functional
# [2] = target: T2, DNA dC->dU-editing enzyme APOBEC-3G (Homo sapiens, UniProt Q9HC16); assay type: functional
# T2 sequence (Q9HC16 whole entry): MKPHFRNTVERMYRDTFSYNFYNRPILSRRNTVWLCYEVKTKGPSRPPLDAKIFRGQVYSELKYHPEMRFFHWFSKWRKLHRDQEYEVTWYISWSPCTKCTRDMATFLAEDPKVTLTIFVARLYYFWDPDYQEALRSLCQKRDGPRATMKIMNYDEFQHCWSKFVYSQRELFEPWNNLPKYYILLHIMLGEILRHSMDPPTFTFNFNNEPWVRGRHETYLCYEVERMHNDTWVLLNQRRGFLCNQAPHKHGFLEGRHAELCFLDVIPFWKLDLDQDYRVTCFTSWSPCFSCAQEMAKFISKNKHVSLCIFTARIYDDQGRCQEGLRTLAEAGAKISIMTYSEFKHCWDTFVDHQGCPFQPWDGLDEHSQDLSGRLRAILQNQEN
# Galanin receptor type 3 = Galanin receptor type 3 (Homo sapiens, UniProt O60755); assay: Fluorescence-based cell-based primary high throughput dose response assay to identify antagonists of the Galanin Receptor 3 (GalR3).; assay type: functional
# Chain of Galanin receptor type 3 (O60755 whole entry): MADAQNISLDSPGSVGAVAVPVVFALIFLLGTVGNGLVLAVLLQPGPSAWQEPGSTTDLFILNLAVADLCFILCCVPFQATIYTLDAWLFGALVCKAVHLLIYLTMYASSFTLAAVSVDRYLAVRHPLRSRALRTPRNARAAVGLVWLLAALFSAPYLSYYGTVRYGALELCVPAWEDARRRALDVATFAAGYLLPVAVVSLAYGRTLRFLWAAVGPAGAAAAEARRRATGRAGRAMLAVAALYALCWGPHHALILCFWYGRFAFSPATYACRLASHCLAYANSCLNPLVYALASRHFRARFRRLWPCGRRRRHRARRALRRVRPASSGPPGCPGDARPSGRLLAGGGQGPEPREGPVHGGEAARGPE
# Mucolipin-3 = target: T3, Mucolipin-3 (Homo sapiens, UniProt Q8TDD5); assay: Dose response cell-based high-throughput screening assay for agonists of the transient receptor potential channel ML3 (TRPML3). [Related pubchem assays: 1526, 1424, 1448 ]; assay type: functional
# T3 sequence (Q8TDD5 whole entry): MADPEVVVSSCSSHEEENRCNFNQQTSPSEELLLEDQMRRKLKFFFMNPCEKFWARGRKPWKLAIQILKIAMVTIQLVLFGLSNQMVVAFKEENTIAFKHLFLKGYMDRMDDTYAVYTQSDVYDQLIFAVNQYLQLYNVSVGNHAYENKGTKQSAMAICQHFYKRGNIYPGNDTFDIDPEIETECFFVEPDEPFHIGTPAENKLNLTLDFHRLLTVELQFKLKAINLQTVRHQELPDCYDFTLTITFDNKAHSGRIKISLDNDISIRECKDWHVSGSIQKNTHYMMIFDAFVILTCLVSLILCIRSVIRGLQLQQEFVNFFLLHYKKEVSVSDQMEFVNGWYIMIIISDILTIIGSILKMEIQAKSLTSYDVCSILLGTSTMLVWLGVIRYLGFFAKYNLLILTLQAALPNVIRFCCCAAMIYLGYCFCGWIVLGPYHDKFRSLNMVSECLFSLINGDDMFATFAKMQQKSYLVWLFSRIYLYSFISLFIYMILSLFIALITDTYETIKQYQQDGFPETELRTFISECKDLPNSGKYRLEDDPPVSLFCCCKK
# cells = assay type: functional, cell-based; conditions: HEK-CNG
# [3] = target: Acyl-homoserine lactone acylase PvdQ (Pseudomonas aeruginosa (strain LESB58), UniProt Q9I194); assay: P. aeruginosa PvdQ acylase inhibitors, dose response, biochemical, fluorescence, plate reader and imaging, cherry-picks (AID 493231)
# Chain of Acyl-homoserine lactone acylase PvdQ (Q9I194 24-193 limits assumed): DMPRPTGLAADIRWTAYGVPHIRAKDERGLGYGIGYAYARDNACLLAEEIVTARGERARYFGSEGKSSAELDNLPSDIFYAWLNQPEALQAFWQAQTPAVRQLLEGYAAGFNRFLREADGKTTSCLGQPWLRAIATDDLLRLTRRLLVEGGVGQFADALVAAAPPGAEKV
# Chain of Acyl-homoserine lactone acylase PvdQ (Q9I194 217-762 limits assumed): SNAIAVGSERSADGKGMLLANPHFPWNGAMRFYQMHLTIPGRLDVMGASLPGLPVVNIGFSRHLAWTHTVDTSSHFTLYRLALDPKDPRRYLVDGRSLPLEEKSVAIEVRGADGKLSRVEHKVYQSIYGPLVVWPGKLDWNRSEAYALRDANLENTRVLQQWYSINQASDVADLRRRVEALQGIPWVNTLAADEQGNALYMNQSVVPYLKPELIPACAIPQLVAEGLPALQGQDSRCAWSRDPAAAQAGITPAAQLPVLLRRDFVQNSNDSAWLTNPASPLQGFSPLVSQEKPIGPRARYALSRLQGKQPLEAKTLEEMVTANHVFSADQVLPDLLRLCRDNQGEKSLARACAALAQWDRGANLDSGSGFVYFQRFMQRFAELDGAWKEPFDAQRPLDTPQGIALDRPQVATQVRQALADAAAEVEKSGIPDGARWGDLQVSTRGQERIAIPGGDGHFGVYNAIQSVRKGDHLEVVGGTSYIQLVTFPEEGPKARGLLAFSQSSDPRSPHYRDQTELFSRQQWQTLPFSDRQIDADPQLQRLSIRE
# [4] = M. tuberculosis H37Rv growth inhibitors, H37Rv strain (AID 1626); assay type: functional
# [5] = target: T1, DNA dC->dU-editing enzyme APOBEC-3A; assay: APOBEC3A DNA deaminase inhibitors, dose response, biochemical (AID 504722); assay type: functional
# [6] = target: T2, DNA dC->dU-editing enzyme APOBEC-3G; assay: Dose Response confirmation of small molecule APOBEC3G DNA Deaminase Inhibitors via a fluorescence-based single-stranded DNA deaminase assay. [Related pubchem assays (depositor defined):AID493012, AID493028]; assay type: functional
# HEK293 [7] = assay: cells; assay type: functional, cell-based; conditions: Homo sapiens
# Vero [8] = assay: cells; assay type: functional; conditions: Chlorocebus sabaeus
# HEK293 [9] = assay: cells; assay type: functional, cell-based; conditions: Homo sapiens; remark: listed apart in the source
# [10] = A Cell Based Secondary Assay To Explore Cytotoxicity of Compounds that Sensitize Mycobacterium Tuberculosis to Beta-Lactam Antibiotics.; assay type: functional
# HEK293 [11] = assay: NOD1 signaling inhibitors, primary screen, cell-based, luminescence, uHTS (AID 1578); assay type: functional; conditions: Homo sapiens
# Vero [12] = assay: host cell cytotoxicity of antiviral hits, dose response, cytotoxicity control for West Nile virus antiviral project, secondary assay (AID 1650); assay type: functional; conditions: Chlorocebus sabaeus
# HEK293 [13] = assay: NOD2 signaling inhibitors in MDP-stimulated cells, cell-based, uHTS, luminescence (AID 2001); assay type: functional; conditions: Homo sapiens
# Vero [14] = assay: cells; assay type: functional, cell-based; conditions: Chlorocebus sabaeus
# Fatty acid synthase [15] = target: T4, Fatty acid synthase (Homo sapiens, UniProt P49327); assay: FAS thioesterase domain inhibitors, dose response, biochemical, endpoint fluorescence intensity, uHTS hits (AID 624327); assay type: functional;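 note: fluorescence from hydrolysis of an O-methyl fluorescein acyl ester substrate by the enzyme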
# T4 sequence (P49327 whole entry, the tested form may be a part): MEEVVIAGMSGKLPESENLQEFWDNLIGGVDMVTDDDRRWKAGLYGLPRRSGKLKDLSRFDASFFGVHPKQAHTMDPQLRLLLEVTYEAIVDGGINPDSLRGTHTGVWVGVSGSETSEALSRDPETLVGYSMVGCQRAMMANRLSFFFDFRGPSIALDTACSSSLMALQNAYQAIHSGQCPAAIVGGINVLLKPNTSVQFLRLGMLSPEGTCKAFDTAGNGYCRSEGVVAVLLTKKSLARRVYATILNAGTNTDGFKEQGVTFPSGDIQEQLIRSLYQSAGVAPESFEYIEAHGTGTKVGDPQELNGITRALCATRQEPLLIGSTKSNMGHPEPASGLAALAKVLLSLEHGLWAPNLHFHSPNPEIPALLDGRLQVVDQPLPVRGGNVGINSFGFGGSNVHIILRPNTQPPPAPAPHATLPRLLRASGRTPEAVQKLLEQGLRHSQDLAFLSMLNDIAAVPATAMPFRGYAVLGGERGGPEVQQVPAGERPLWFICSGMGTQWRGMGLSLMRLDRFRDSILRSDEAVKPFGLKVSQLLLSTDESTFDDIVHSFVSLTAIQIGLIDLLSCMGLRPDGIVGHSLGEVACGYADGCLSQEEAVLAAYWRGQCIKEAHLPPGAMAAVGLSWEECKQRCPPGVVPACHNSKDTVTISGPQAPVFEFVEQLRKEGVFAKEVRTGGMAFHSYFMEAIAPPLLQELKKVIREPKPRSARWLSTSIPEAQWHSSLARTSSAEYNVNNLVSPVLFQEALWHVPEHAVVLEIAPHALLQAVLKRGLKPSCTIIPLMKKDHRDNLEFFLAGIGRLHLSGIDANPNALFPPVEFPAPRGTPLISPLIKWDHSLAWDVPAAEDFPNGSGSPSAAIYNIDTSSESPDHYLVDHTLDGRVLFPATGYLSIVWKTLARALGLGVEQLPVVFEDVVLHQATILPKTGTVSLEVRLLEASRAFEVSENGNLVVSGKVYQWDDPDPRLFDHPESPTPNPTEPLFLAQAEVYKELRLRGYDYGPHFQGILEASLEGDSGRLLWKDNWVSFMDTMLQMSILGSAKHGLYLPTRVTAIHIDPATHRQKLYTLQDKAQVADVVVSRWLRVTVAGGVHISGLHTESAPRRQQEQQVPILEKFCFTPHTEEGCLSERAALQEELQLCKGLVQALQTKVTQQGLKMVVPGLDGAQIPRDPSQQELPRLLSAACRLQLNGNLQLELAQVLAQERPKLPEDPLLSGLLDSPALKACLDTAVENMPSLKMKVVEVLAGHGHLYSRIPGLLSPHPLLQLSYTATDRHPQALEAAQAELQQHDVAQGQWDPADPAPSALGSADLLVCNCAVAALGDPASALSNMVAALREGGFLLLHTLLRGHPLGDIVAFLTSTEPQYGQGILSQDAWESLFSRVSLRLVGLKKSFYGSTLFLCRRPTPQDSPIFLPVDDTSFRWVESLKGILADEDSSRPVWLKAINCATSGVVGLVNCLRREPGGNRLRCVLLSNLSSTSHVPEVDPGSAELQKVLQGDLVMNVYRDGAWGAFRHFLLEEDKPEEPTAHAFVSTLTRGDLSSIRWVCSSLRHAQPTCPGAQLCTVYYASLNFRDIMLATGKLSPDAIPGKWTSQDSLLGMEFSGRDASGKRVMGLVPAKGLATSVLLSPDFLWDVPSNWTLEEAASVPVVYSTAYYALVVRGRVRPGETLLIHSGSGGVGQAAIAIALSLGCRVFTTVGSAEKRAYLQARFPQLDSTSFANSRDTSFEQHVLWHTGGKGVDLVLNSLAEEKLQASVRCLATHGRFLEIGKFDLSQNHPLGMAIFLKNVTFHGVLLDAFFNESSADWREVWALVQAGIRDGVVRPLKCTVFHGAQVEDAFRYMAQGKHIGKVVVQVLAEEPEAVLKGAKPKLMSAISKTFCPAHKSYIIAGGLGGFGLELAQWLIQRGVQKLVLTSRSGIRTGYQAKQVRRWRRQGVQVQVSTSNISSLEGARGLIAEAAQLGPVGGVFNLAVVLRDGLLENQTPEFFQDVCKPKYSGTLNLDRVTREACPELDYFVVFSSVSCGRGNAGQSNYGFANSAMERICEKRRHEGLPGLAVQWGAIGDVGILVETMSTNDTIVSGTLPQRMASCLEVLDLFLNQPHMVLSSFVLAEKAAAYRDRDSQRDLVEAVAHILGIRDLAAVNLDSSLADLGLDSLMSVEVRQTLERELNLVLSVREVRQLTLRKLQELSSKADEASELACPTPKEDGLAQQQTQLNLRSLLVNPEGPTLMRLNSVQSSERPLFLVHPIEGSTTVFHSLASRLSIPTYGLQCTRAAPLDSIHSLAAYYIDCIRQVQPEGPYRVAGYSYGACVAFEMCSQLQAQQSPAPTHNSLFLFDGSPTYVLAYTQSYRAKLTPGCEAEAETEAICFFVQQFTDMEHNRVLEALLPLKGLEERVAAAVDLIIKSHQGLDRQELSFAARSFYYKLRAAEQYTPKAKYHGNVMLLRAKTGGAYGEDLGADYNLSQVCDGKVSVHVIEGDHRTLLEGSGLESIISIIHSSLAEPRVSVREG
# [16] = target: T5, Probable nicotinate-nucleotide adenylyltransferase (Staphylococcus aureus (strain N315), UniProt P65502); assay type: functional, Staphylococcus aureus subsp. aureus N315; conditions: read-out: IC50_Mean;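 for IC50 Mean: confirmatory dose-response retesting of NadD inhibitor hits first found in an ultra-high-throughput screen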
# T5 sequence (P65502 whole entry): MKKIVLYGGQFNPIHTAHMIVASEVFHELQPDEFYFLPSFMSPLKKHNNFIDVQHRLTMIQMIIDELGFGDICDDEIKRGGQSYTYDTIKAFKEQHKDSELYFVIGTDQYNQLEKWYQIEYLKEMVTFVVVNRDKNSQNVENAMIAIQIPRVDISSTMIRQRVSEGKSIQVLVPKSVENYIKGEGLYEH
# [17] = target: T5, Probable nicotinate-nucleotide adenylyltransferase; assay type: functional, Staphylococcus aureus subsp. aureus N315
# Fatty acid synthase [18] = target: T4, Fatty acid synthase; assay: FAS thioesterase domain inhibitors, dose response, biochemical, kinetic fluorescence intensity (AID 624326); assay type: functional;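 note: rate of fluorescence rise from hydrolysis of a fluorogenic O-methyl fluorescein ester substrate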
# [19] = HIV-1 Env-mediated cell fusion inhibitors, dose response, CCR5-tropic Env (AID 2279); assay type: functional
# [20] = target: G-protein coupled receptor 35 (Homo sapiens, UniProt Q9HC97); assay: GPR35 antagonists blocking zaprinast-driven arrestin recruitment, primary screen, imaging, U2OS, beta-arrestin-GFP, zaprinast agonist (AID 2058); assay type: functional;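 note: antagonist potency meaning inhibition of agonist-induced arrestin redistribution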
# Chain of G-protein coupled receptor 35 (Q9HC97 whole entry): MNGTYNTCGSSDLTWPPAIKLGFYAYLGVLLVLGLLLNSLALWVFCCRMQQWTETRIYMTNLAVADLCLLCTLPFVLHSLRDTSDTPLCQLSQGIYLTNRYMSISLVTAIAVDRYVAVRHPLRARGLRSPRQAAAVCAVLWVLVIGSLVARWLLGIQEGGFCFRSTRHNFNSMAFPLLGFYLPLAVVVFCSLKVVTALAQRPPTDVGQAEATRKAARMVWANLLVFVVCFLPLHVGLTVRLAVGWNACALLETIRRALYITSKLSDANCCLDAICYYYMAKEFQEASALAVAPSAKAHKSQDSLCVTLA
# HEK293 [21] = assay: inhibitors of LMP1-driven NF-kB reporter, dose response, cell-based, HEK293, luciferase, cherry-pick (AID 588343); assay type: functional; conditions: Homo sapiens
# T1 sequence (P31941 whole entry): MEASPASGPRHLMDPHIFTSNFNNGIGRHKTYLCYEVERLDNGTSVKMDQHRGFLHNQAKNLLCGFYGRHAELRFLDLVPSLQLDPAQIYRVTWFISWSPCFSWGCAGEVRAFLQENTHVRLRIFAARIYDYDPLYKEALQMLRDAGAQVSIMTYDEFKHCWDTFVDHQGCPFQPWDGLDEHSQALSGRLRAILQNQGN
smiles,measurement,setting,value
C[N+](C)(C)C/C=C1/COCO1,IC50,[1],1.89 µM (active)
same,EC50,Ion channel NompC,17.6 µM (not active)
same,IC50,[2],1.89 µM (active)
same,IC50,Galanin receptor type 3,> 29.9 µM (inactive)
same,EC50,Mucolipin-3,4.76 µM (active)
same,EC50,cells,> 29.9 µM (inactive)
CCOc1ccc(-n2cccc2C=O)cc1,AC50,[3],7.29 µM (active)
COc1ccc(N)cc1-n1cnnn1,IC50,[4],> 100 µM (active)
COCCCn1c(S)nnc1-c1ccc(Cl)cc1,IC50,[5],> 100 µM (inactive)
same,IC50,[6],4.57 µM (active)
Cc1cc(NC(=O)c2cc(F)c(F)cc2Cl)no1,AC50,[3],24 µM (active)
Cn1c(/C=C/c2ccc(Br)cc2)c([N+](=O)[O-])c(=O)n(C)c1=O,IC50,HEK293 [7],4.31 µM (active)
same,CC50,Vero [8],12.1 µM (active)
same,IC50,HEK293 [9],14.3 µM (active)
same,CC50,[10],21.9 µM (active)
same,EC50,HEK293 [11],14.4 µM (active)
same,CC50,Vero [12],16 µM (active)
same,IC50,HEK293 [13],4.87 µM (active)
same,IC50,Vero [14],23.9 µM (active)
COc1ccc(-c2csc(NC(=O)c3ccccc3NS(=O)(=O)c3ccc(C)cc3)n2)cc1,IC50,Fatty acid synthase [15],10.2 µM (active)
same,IC50,[16],60.1 µM (active)
same,IC50,[17],6.12 µM (active)
same,IC50,Fatty acid synthase [18],6.07 µM (active)
same,IC50,[19],3.03 µM (active)
CC1(C)Cc2c(ccc3ccccc23)/C(=C/C(=O)N2CCCCC2)N1,IC50,[20],11 µM (inactive)
same,AC50,HEK293 [21],26.1 µM (active)
